Measurements taken from PMC10562414, “GLP-1R signaling neighborhoods associate with the susceptibility to adverse drug reactions of incretin mimetics” (Nature Communications, 2023).

Assays:
[1] = system: GLP-1R-expressing HEK293 cells (phosphoproteome); assay: Phosphoproteomics time course (5, 15, 30, 60 min) in GLP-1R-expressing cells; type: cell-based, human
Protocol: P values were calculated by a two-sided unpaired t-test.
HEK293 cells (350,000 cells/mL) were transfected in suspension using 3 μg of linear PEI (MW 25,000) per 1 μg of plasmid DNA and seeded onto poly-D-lysine-coated 60 mm dishes at a density of 1,750,000 cells per dish. After a 24-h incubation, cells were washed twice with PBS and placed in starvation media (DMEM with penicillin/streptomycin). After a 48-h incubation, cells were washed twice with HBSS and maintained in the same buffer. […] Cell extracts were prepared as previously described[64]–[66]. In short, 200 μL of the lysis buffer preheated at 95 °C (4% sodium dodecyl sulfate in 50 mM Tris adjusted to pH 8.5) was added to the cells. The samples were then denatured at 95 °C for 10 min, placed on ice and then sonicated using a probe sonicator (3 sec on, 3 sec off pulse, 1 min, 30% amplitude) (Branson). Lysate protein concentration was determined using the Pierce bicinchoninic acid assay kit (Thermo Fisher Scientific) according to the manufacturer’s instructions. The lysates were reduced using 5 mM dithiothreitol for 1 h at room temperature and alkylated using 15 mM iodoacetamide for 1 h at room temperature in the dark. Proteins were precipitated and digested on beads using MagReSyn Amine magnetic beads (ReSyn Biosciences) according to the manufacturer’s instructions. Protein digestion was conducted overnight at 37 °C with lysyl endopeptidase (LysC, Wako) (1:150 LysC/protein, w/w) and trypsin (1:300 trypsin/protein, w/w). 20% TFA, 2 M glycolic acid in 80% ACN were added to the samples at a 1:1 ratio for phosphopeptide enrichment using MagReSyn TiO2 magnetic beads (ReSyn Biosciences) according to the manufacturer’s instructions. The enriched phosphopeptides were dried overnight in a SpeedVac, resuspended into 5% formic acid (FA), desalted using StageTip (Thermo Fisher Scientific) according to the manufacturer’s instructions and dried in a SpeedVac. The experiment was performed in biological triplicates.
All parameters and settings regarding the acquisition of the proteomics data can be found in Supplementary Data 11, 12. For data acquisition, the instrument was set to peptide mode, with a trapping pressure set as low (2mTorr). An EASY-Spray Source (Thermo Fisher Scientific) was used and the column temperature was maintained with the integrated, temperature-controlled heater at 55 °C throughout the experiment. For the data presented in Fig. 5d, the column was heated at 50 °C following the manufacturer’s instructions (IonOpticks).
Acquired raw files were converted to mzML format by MSConvert (version 3.0.21258)[67] applying peak picking of the mass spectra with the vendor-provided algorithm (Thermo Fisher Scientific). The mzML files were analyzed using the FragPipe GUI v18 for both library and DIA search. […] Trypsin with up to 2 missed cleavages was set as digestion enzyme, oxidation of methionine, acetylation of the N-terminus and phosphorylation on serine, threonine and tyrosine (maximal occurrence was set to three) were set as variable modifications. Carbamidomethylation of cysteine residues was set as a fixed modification. Peptide length was restricted to 7 to 50 amino acids, and 500 to 5000 Da. The precursor tolerance was set to ±20 ppm, fragment mass tolerance to 20 ppm and MSBooster was enabled. The resulting peptide-spectrum matches were adjusted to a 1% false discovery rate with Percolator[69] as part of the Philosopher toolkit (v4.4)[70] and converted to a spectra library. DIA files were analyzed by DIA-NN 1.8.1[71], [72] using the previously generated library and monitor-command mode. Peptide quantification was performed based on the fragment elution profiles from the MS2 level (area under the curve).
All further data processing was performed in R (version 4.2.1). Only phosphopeptides with a localization score of at least 0.75 were considered for further analysis. […]

GLP-1R = GLP-1R (Homo sapiens, UniProt P43220); assay: Hierarchical / k-means / fuzzy clustering of GLP-1R agonist signaling profiles (z-scored Emax and EC50, cluster centers)
Excerpt: Using ebBRET, we extended our pathway profiling to endosomes, the Golgi apparatus and the endoplasmic reticulum. […] In short, positive k-means cluster centers were indicative of high potency or efficacy in a specific pathway and compartment, whereas negative k-means cluster centers could be interpreted as pathways that were underrepresented or not activated by a given drug cluster (Fig. 6c).
Efficacy and potency were extracted from concentration-response curves and aggregated before k-means clustering. b Hierarchical clustering of GLP-1R agonists based on signaling neighborhood profiles. c Cluster centers of distinct drug clusters identified by k-means clustering. Defining cluster features are listed by rank order, and the top and bottom five features are highlighted for each cluster.
represented as z-scores. Pathways that were not activated by GLP-1R upon exposure to ligand
according to efficacy or potency, compartments, and pathways. Pathways that were not activated
by any drug were removed for clarity. c, Heatmap and hierarchical clustering of efficacy for 8
drugs in 15 pathways and 4 cellular compartments. Data are represented as z-scores.

[2] = 15min, relative to time-matched vehicle condition, p.value […], passed.all.criteria 0
[3] = 60min, relative to time-matched vehicle condition, p.value […], passed.all.criteria 0

Sequence of GLP-1R (P43220 24-463): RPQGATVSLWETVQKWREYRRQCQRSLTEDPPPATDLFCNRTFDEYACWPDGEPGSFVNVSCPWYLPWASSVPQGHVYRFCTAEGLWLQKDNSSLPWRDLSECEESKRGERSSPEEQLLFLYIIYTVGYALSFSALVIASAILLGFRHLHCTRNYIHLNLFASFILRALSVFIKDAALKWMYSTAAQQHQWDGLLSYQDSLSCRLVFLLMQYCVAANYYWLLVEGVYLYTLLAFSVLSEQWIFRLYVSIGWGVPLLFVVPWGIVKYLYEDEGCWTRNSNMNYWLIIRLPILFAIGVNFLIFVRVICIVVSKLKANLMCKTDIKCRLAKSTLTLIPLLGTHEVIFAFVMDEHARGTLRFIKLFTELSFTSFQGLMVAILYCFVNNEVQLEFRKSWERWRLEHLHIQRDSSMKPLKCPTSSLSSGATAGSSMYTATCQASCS

Compound: N#Cc1ccc(COc2cccc(C3CCN(Cc4nc5ccc(C(=O)O)cc5n4C[C@@H]4CCO4)CC3)n2)c(F)c1 [Danuglipron]
- regulation of RAB1B and α-synuclein phosphorylation, in words ([1]; 1 μM): significantly regulated by danuglipron
- number of phosphopeptides overlapping between danuglipron and semaglutide treatments ([1]; 1 μM, 30 min): 8
- number of significantly altered phosphopeptides ([1]; 1 μM, 30 min, drug-specific, vs vehicle): 220
- Normalized phosphoproteomics data, ESYT2 S691 (A0FGR8) ([1]; 5min, repA): 19.6049
- Normalized phosphoproteomics data, HMX3 S60 (A6NHT5) ([1]; 5min, repA): 20.3906
- Normalized phosphoproteomics data, HNRNPA1L3 Y250 (A0A2R8Y4L2) ([1]; 5min, repA): 20.6785
- Normalized phosphoproteomics data, POM121C T710 (A8CG34) ([1]; 5min, repA): 20.0234
- Normalized phosphoproteomics data, SBNO1 S794 (A3KN83) ([1]; 5min, repA): 17.9318
- Normalized phosphoproteomics data, ESYT2 S691 (A0FGR8) ([1]; 5min, repB): 19.6976
- Normalized phosphoproteomics data, HMX3 S60 (A6NHT5) ([1]; 5min, repB): 20.283
- Normalized phosphoproteomics data, HNRNPA1L3 Y250 (A0A2R8Y4L2) ([1]; 5min, repB): 20.3164
- Normalized phosphoproteomics data, POM121C T710 (A8CG34) ([1]; 5min, repB): 20.7371
- Normalized phosphoproteomics data, SBNO1 S794 (A3KN83) ([1]; 5min, repB): 18.211
- Normalized phosphoproteomics data, ESYT2 S691 (A0FGR8) ([1]; 5min, repC): 21.1682
- Normalized phosphoproteomics data, HMX3 S60 (A6NHT5) ([1]; 5min, repC): 19.9991
- Normalized phosphoproteomics data, HNRNPA1L3 Y250 (A0A2R8Y4L2) ([1]; 5min, repC): 20.6414
- Normalized phosphoproteomics data, POM121C T710 (A8CG34) ([1]; 5min, repC): 20.3991
- Normalized phosphoproteomics data, SBNO1 S794 (A3KN83) ([1]; 5min, repC): 18.5685
- log2.foldchange, FOXK2 S30 (Q01167) ([1]; 5min, relative to time-matched vehicle condition, p.value 0.0181801, passed.all.criteria 0): 0.5529
- log2.foldchange, EIF3J S11 (O75822) ([1]; 5min, relative to time-matched vehicle condition, p.value 0.0905175, passed.all.criteria 0): -0.3791
- log2.foldchange, SCFD1 S14 (Q8WVM8) ([1]; 5min, relative to time-matched vehicle condition, p.value 0.889419, passed.all.criteria 0): 0.04613
- log2.foldchange, CABLES2 T26;S27 (Q9BTV7) ([1]; 5min, relative to time-matched vehicle condition, p.value 0.907346, passed.all.criteria 0): 0.07188
- log2.foldchange, POLE4 S25 (Q9NR33) ([1]; 5min, relative to time-matched vehicle condition, p.value […], passed.all.criteria 0): 0.5824
- Normalized phosphoproteomics data, ESYT2 S691 (A0FGR8) ([1]; 15min, repA): 18.6451
- Normalized phosphoproteomics data, HMX3 S60 (A6NHT5) ([1]; 15min, repA): 20.5059
- Normalized phosphoproteomics data, HNRNPA1L3 Y250 (A0A2R8Y4L2) ([1]; 15min, repA): 20.4577
- Normalized phosphoproteomics data, POM121C T710 (A8CG34) ([1]; 15min, repA): 20.5017
- Normalized phosphoproteomics data, SBNO1 S794 (A3KN83) ([1]; 15min, repA): 18.6084
- Normalized phosphoproteomics data, ESYT2 S691 (A0FGR8) ([1]; 15min, repB): 18.4413
- Normalized phosphoproteomics data, HMX3 S60 (A6NHT5) ([1]; 15min, repB): 22.3446
- Normalized phosphoproteomics data, HNRNPA1L3 Y250 (A0A2R8Y4L2) ([1]; 15min, repB): 20.4067
- Normalized phosphoproteomics data, POM121C T710 (A8CG34) ([1]; 15min, repB): 18.6564
- Normalized phosphoproteomics data, SBNO1 S794 (A3KN83) ([1]; 15min, repB): 17.9968
- Normalized phosphoproteomics data, ESYT2 S691 (A0FGR8) ([1]; 15min, repC): 20.8902
- Normalized phosphoproteomics data, HMX3 S60 (A6NHT5) ([1]; 15min, repC): 20.8902
- Normalized phosphoproteomics data, HNRNPA1L3 Y250 (A0A2R8Y4L2) ([1]; 15min, repC): 20.9108
- Normalized phosphoproteomics data, POM121C T710 (A8CG34) ([1]; 15min, repC): 19.3031
- Normalized phosphoproteomics data, SBNO1 S794 (A3KN83) ([1]; 15min, repC): 18.3915
- log2.foldchange, EIF3J S11 (O75822) ([1]; 15min, relative to time-matched vehicle condition, p.value 0.0462694, passed.all.criteria 0): 0.3639
- log2.foldchange, SCFD1 S14 (Q8WVM8) ([1]; 15min, relative to time-matched vehicle condition, p.value 0.844107, passed.all.criteria 0): 0.06372
- log2.foldchange, CABLES2 T26;S27 (Q9BTV7) [1, 2]: 0.288
- log2.foldchange, FOXK2 S30 (Q01167) [1, 2]: 0.1878
- log2.foldchange, POLE4 S25 (Q9NR33) [1, 2]: -0.08464
- Normalized phosphoproteomics data, ESYT2 S691 (A0FGR8) ([1]; 30min, repA): 21.4861
- Normalized phosphoproteomics data, HMX3 S60 (A6NHT5) ([1]; 30min, repA): 20.1311
- Normalized phosphoproteomics data, HNRNPA1L3 Y250 (A0A2R8Y4L2) ([1]; 30min, repA): 20.8036
- Normalized phosphoproteomics data, POM121C T710 (A8CG34) ([1]; 30min, repA): 20.7324
- Normalized phosphoproteomics data, SBNO1 S794 (A3KN83) ([1]; 30min, repA): 18.5741
- Normalized phosphoproteomics data, ESYT2 S691 (A0FGR8) ([1]; 30min, repB): 20.3489
- Normalized phosphoproteomics data, HMX3 S60 (A6NHT5) ([1]; 30min, repB): 20.2063
- Normalized phosphoproteomics data, HNRNPA1L3 Y250 (A0A2R8Y4L2) ([1]; 30min, repB): 19.9638
- Normalized phosphoproteomics data, POM121C T710 (A8CG34) ([1]; 30min, repB): 20.3008
- Normalized phosphoproteomics data, SBNO1 S794 (A3KN83) ([1]; 30min, repB): 18.1584
- Normalized phosphoproteomics data, ESYT2 S691 (A0FGR8) ([1]; 30min, repC): 19.608
- Normalized phosphoproteomics data, HMX3 S60 (A6NHT5) ([1]; 30min, repC): 21.342
- Normalized phosphoproteomics data, HNRNPA1L3 Y250 (A0A2R8Y4L2) ([1]; 30min, repC): 21.4798
- Normalized phosphoproteomics data, POM121C T710 (A8CG34) ([1]; 30min, repC): 19.571
- Normalized phosphoproteomics data, SBNO1 S794 (A3KN83) ([1]; 30min, repC): 18.2269
- log2.foldchange, POLE4 S25 (Q9NR33) ([1]; 30min, relative to time-matched vehicle condition, p.value 0.0332159, passed.all.criteria 0): 0.4522
- log2.foldchange, CABLES2 T26;S27 (Q9BTV7) ([1]; 30min, relative to time-matched vehicle condition, p.value 0.0661459, passed.all.criteria 0): -0.4521
- log2.foldchange, TRAF2 T7;S11 (Q12933) ([1]; 30min, relative to time-matched vehicle condition, p.value 0.177246, passed.all.criteria 0): 1.124
- log2.foldchange, FOXK2 T13 (Q01167) ([1]; 30min, relative to time-matched vehicle condition, p.value 0.184134, passed.all.criteria 0): -0.3505
- log2.foldchange, SCFD1 S14 (Q8WVM8) ([1]; 30min, relative to time-matched vehicle condition, p.value […], passed.all.criteria 0): -0.2911
- Normalized phosphoproteomics data, ESYT2 S691 (A0FGR8) ([1]; 60min, repA): 20.822
- Normalized phosphoproteomics data, HMX3 S60 (A6NHT5) ([1]; 60min, repA): 21.3332
- Normalized phosphoproteomics data, HNRNPA1L3 Y250 (A0A2R8Y4L2) ([1]; 60min, repA): 20.6441
- Normalized phosphoproteomics data, POM121C T710 (A8CG34) ([1]; 60min, repA): 20.5636
- Normalized phosphoproteomics data, SBNO1 S794 (A3KN83) ([1]; 60min, repA): 19.2753
- Normalized phosphoproteomics data, ESYT2 S691 (A0FGR8) ([1]; 60min, repB): 21.3269
- Normalized phosphoproteomics data, HMX3 S60 (A6NHT5) ([1]; 60min, repB): 22.1586
- Normalized phosphoproteomics data, HNRNPA1L3 Y250 (A0A2R8Y4L2) ([1]; 60min, repB): 20.7268
- Normalized phosphoproteomics data, POM121C T710 (A8CG34) ([1]; 60min, repB): 20.6117
- Normalized phosphoproteomics data, SBNO1 S794 (A3KN83) ([1]; 60min, repB): 18.9035
- Normalized phosphoproteomics data, ESYT2 S691 (A0FGR8) ([1]; 60min, repC): 21.6663
- Normalized phosphoproteomics data, HMX3 S60 (A6NHT5) ([1]; 60min, repC): 20.1861
- Normalized phosphoproteomics data, HNRNPA1L3 Y250 (A0A2R8Y4L2) ([1]; 60min, repC): 20.5504
- Normalized phosphoproteomics data, POM121C T710 (A8CG34) ([1]; 60min, repC): 19.5289
- Normalized phosphoproteomics data, SBNO1 S794 (A3KN83) ([1]; 60min, repC): 18.62
- log2.foldchange, POLE4 S25 (Q9NR33) ([1]; 60min, relative to time-matched vehicle condition, p.value 0.629383, passed.all.criteria 0): 0.05873
- log2.foldchange, SCFD1 S14 (Q8WVM8) ([1]; 60min, relative to time-matched vehicle condition, p.value 0.819487, passed.all.criteria 0): -0.06624
- log2.foldchange, CABLES2 T26;S27 (Q9BTV7) [1, 3]: -0.3341
- log2.foldchange, EIF3J S11 (O75822) [1, 3]: -0.413
- log2.foldchange, TRAF2 T7;S11 (Q12933) [1, 3]: 0.4682
- z-scores (GLP-1R): -0.3536
- drug cluster (hierarchical / k-means) (GLP-1R; efficacy and potency, 15 pathways, 4 compartments): 4
- defining cluster features, in words (GLP-1R; k-means cluster centers): endoplasmic reticulum-localized recruitment of mGs and decreased recruitment of βARR at the plasma membrane
